# PubChem BioAssay (NCI)
#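 All cell lines were grown in 96-well plates and treated with compound for 48 hours. TGI: total growth inhibition.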
# Columns and labels:
# Experiment in all cases: NCI-60 cell line screen, 48 h
# [1] = system: MOLT-4 leukemia
# [2] = system: BT-549 breast
# [3] = system: HOP-92 NSCLC
# [4] = system: SF-268 CNS
# [5] = system: SK-MEL-5 melanoma
# [6] = system: SK-MEL-2 melanoma
# [7] = system: NCI-H226 lung
# [8] = system: HL-60(TB) leukemia
# [9] = system: UO-31 renal
# [10] = system: SK-MEL-28 melanoma
# [11] = system: PC-3 prostate
# [12] = system: HCT-116 colon
# [13] = system: SN12C renal
# [14] = system: OVCAR-8 ovarian
# [15] = system: SR leukemia
# [16] = system: MDA-N
# [17] = system: OVCAR-5 ovarian
# [18] = system: U251 CNS
# [19] = system: K-562 leukemia
# [20] = system: TK-10 renal
# [21] = system: HCT-15 colon
# [22] = system: OVCAR-4 ovarian
# [23] = system: MDA-MB-435
# [24] = system: SF-295 CNS
# [25] = system: A549 NSCLC
# [26] = system: NCI/ADR-RES ovarian
# [27] = system: SF-539 CNS
# [28] = system: ACHN renal
# [29] = system: HT29 colon
# [30] = system: CCRF-CEM leukemia
# [31] = system: IGROV1 ovarian
# [32] = system: HS 578T breast
# [33] = system: SK-OV-3 ovarian
# [34] = system: UACC-62 melanoma
# [35] = system: SW-620 colon
# [36] = system: RXF 393 renal
# [37] = system: 786-0 renal
# [38] = system: HCC-2998 colon
# [39] = system: DU-145 prostate
# [40] = system: MDA-MB-231 breast
# [41] = system: A498 renal
# [42] = system: SNB-19 CNS
# [43] = system: CAKI-1 renal
# [44] = system: NCI-H460 lung
# [45] = system: T-47D breast
# [46] = system: RPMI-8226 leukemia
# [47] = system: COLO 205 colon
# [48] = system: NCI-H23 lung
# [49] = system: LOX IMVI melanoma
# [50] = system: UACC-257 melanoma
# [51] = system: EKVX NSCLC
# [52] = system: HOP-62 NSCLC
# [53] = system: M14 melanoma
# [54] = system: MCF7 breast
# [55] = system: NCI-H522 lung
# [56] = system: OVCAR-3 ovarian
# [57] = system: SNB-75 CNS
# [58] = system: KM12 colon
# [59] = system: MALME-3M melanoma
compound,measurement,setting,value
CCOC(=O)C1=C(C)N(C)C(=S)NC1c1cccc(O)c1 (stereo not drawn),TGI,[1],> 100 µM
same,TGI,[2],87.9 µM
same,TGI,[3],75.1 µM
same,TGI,[4],> 100 µM
same,TGI,[5],> 100 µM
same,TGI,[6],97.2 µM
same,TGI,[7],> 100 µM
same,TGI,[8],64 µM
same,TGI,[9],> 100 µM
same,TGI,[10],> 100 µM
same,TGI,[11],> 100 µM
same,TGI,[12],> 100 µM
same,TGI,[13],> 100 µM
same,TGI,[14],> 100 µM
same,TGI,[15],57.3 µM
same,TGI,[16],33 µM
same,TGI,[17],> 100 µM
same,TGI,[18],> 100 µM
same,TGI,[19],> 100 µM
same,TGI,[20],> 100 µM
same,TGI,[21],> 100 µM
same,TGI,[22],> 100 µM
same,TGI,[23],34.9 µM
same,TGI,[24],> 100 µM
same,TGI,[25],> 100 µM
same,TGI,[26],54.9 µM
same,TGI,[27],> 100 µM
same,TGI,[28],> 100 µM
same,TGI,[29],> 100 µM
same,TGI,[30],72.1 µM
same,TGI,[31],> 100 µM
same,TGI,[32],> 100 µM
same,TGI,[33],> 100 µM
same,TGI,[34],> 100 µM
same,TGI,[35],> 100 µM
same,TGI,[36],52.4 µM
same,TGI,[37],> 100 µM
same,TGI,[38],92.6 µM
same,TGI,[39],> 100 µM
same,TGI,[40],> 100 µM
same,TGI,[41],84 µM
same,TGI,[42],> 100 µM
same,TGI,[43],> 100 µM
same,TGI,[44],> 100 µM
same,TGI,[45],> 100 µM
same,TGI,[46],> 100 µM
same,TGI,[47],> 100 µM
same,TGI,[48],> 100 µM
same,TGI,[49],> 100 µM
same,TGI,[50],> 100 µM
same,TGI,[51],93.6 µM
same,TGI,[52],> 100 µM
same,TGI,[53],83.1 µM
same,TGI,[54],> 100 µM
same,TGI,[55],> 100 µM
same,TGI,[56],> 100 µM
same,TGI,[57],> 100 µM
same,TGI,[58],> 100 µM
CC1CCCN(CC(O)CN2CCCc3ccccc32)C1 (stereo not drawn),TGI,[1],> 100 µM
same,TGI,[2],> 100 µM
same,TGI,[4],> 100 µM
same,TGI,[5],> 100 µM
same,TGI,[6],> 100 µM
same,TGI,[7],> 100 µM
same,TGI,[8],46.6 µM
same,TGI,[59],> 100 µM
same,TGI,[9],> 100 µM
same,TGI,[10],> 100 µM
same,TGI,[11],> 100 µM
same,TGI,[12],> 100 µM
same,TGI,[13],> 100 µM
same,TGI,[14],> 100 µM
same,TGI,[15],> 100 µM
same,TGI,[16],> 100 µM
same,TGI,[17],> 100 µM
same,TGI,[18],> 100 µM
same,TGI,[19],> 100 µM
same,TGI,[20],> 100 µM
same,TGI,[21],> 100 µM
same,TGI,[22],> 100 µM
same,TGI,[23],> 100 µM
same,TGI,[24],> 100 µM
same,TGI,[25],> 100 µM
same,TGI,[26],> 100 µM
same,TGI,[28],> 100 µM
same,TGI,[29],> 100 µM
same,TGI,[30],> 100 µM
same,TGI,[31],> 100 µM
same,TGI,[32],> 100 µM
same,TGI,[33],> 100 µM
same,TGI,[34],> 100 µM
same,TGI,[35],> 100 µM
same,TGI,[36],> 100 µM
same,TGI,[37],> 100 µM
same,TGI,[39],> 100 µM
same,TGI,[40],> 100 µM
same,TGI,[41],> 100 µM
same,TGI,[42],> 100 µM
same,TGI,[43],> 100 µM
same,TGI,[45],> 100 µM
same,TGI,[46],> 100 µM
same,TGI,[47],> 100 µM
same,TGI,[48],> 100 µM
same,TGI,[49],> 100 µM
same,TGI,[50],> 100 µM
same,TGI,[51],> 100 µM
same,TGI,[52],> 100 µM
same,TGI,[53],> 100 µM
same,TGI,[54],> 100 µM
same,TGI,[55],> 100 µM
same,TGI,[56],> 100 µM
same,TGI,[57],> 100 µM
same,TGI,[58],> 100 µM
CC1=NN2C(=O)CC(=O)N=C2S1,TGI,[1],> 100 µM
same,TGI,[2],> 100 µM
same,TGI,[3],> 100 µM
same,TGI,[4],> 100 µM
same,TGI,[5],> 100 µM
same,TGI,[6],> 100 µM
same,TGI,[7],> 100 µM
same,TGI,[8],> 100 µM
same,TGI,[59],> 100 µM
same,TGI,[10],> 100 µM
same,TGI,[11],> 100 µM
same,TGI,[12],> 100 µM
same,TGI,[13],> 100 µM
same,TGI,[14],> 100 µM
same,TGI,[15],> 100 µM
same,TGI,[16],> 100 µM
same,TGI,[17],> 100 µM
same,TGI,[18],> 100 µM
same,TGI,[19],> 100 µM
same,TGI,[20],> 100 µM
same,TGI,[21],> 100 µM
same,TGI,[22],> 100 µM
same,TGI,[23],> 100 µM
same,TGI,[24],> 100 µM
same,TGI,[25],> 100 µM
same,TGI,[26],> 100 µM
same,TGI,[27],> 100 µM
same,TGI,[28],> 100 µM
same,TGI,[29],> 100 µM
same,TGI,[30],> 100 µM
same,TGI,[31],> 100 µM
same,TGI,[32],> 100 µM
same,TGI,[33],> 100 µM
same,TGI,[34],> 100 µM
same,TGI,[35],> 100 µM
same,TGI,[36],> 100 µM
same,TGI,[37],> 100 µM
same,TGI,[39],> 100 µM
same,TGI,[40],> 100 µM
same,TGI,[42],> 100 µM
same,TGI,[43],> 100 µM
same,TGI,[44],> 100 µM
same,TGI,[45],> 100 µM
same,TGI,[46],> 100 µM
same,TGI,[47],> 100 µM
same,TGI,[48],> 100 µM
same,TGI,[49],> 100 µM
same,TGI,[50],> 100 µM
same,TGI,[51],> 100 µM
same,TGI,[52],> 100 µM
same,TGI,[53],> 100 µM
same,TGI,[54],> 100 µM
same,TGI,[55],> 100 µM
same,TGI,[56],> 100 µM
same,TGI,[57],> 100 µM
same,TGI,[58],> 100 µM
O=c1n(-c2ccccc2)c(=O)n2n1C1CCC2CC1,TGI,[1],> 100 µM
same,TGI,[2],> 100 µM
same,TGI,[3],> 100 µM
same,TGI,[4],> 100 µM
same,TGI,[5],> 100 µM
same,TGI,[6],> 100 µM
same,TGI,[7],> 100 µM
same,TGI,[8],> 100 µM
same,TGI,[9],> 100 µM
same,TGI,[10],> 100 µM
same,TGI,[11],> 100 µM
same,TGI,[12],> 100 µM
same,TGI,[13],> 100 µM
same,TGI,[14],> 100 µM
same,TGI,[15],> 100 µM
same,TGI,[16],> 100 µM
same,TGI,[17],> 100 µM
same,TGI,[18],> 100 µM
same,TGI,[19],> 100 µM
same,TGI,[20],> 100 µM
same,TGI,[21],> 100 µM
same,TGI,[23],> 100 µM
same,TGI,[24],> 100 µM
same,TGI,[25],> 100 µM
same,TGI,[26],> 100 µM
same,TGI,[27],> 100 µM
same,TGI,[28],> 100 µM
same,TGI,[29],> 100 µM
same,TGI,[30],> 100 µM
same,TGI,[31],> 100 µM
same,TGI,[32],> 100 µM
same,TGI,[33],> 100 µM
same,TGI,[34],> 100 µM
same,TGI,[35],> 100 µM
same,TGI,[37],> 100 µM
same,TGI,[39],> 100 µM
same,TGI,[40],> 100 µM
same,TGI,[41],> 100 µM
same,TGI,[42],> 100 µM
same,TGI,[43],> 100 µM
same,TGI,[44],> 100 µM
same,TGI,[45],> 100 µM
same,TGI,[46],> 100 µM
same,TGI,[47],> 100 µM
same,TGI,[48],> 100 µM
same,TGI,[49],> 100 µM
same,TGI,[50],> 100 µM
same,TGI,[51],> 100 µM
same,TGI,[52],> 100 µM
same,TGI,[53],> 100 µM
same,TGI,[54],> 100 µM
same,TGI,[56],> 100 µM
same,TGI,[57],> 100 µM
same,TGI,[58],> 100 µM
